The source of these data is patent US20140011773A1, “Pro-drug Compounds” (Proximagen Limited, priority 2012, published 2014).

Where a name gives a salt, the structure may show the parent alone. Read-outs that look alike come from different tables or passages of the source.

Series [1] in a line: Pharmacokinetics: plasma levels after intravenous dosing to rats. The note with it: male, Sprague Dawley, rat, 0.95 mg/kg IV, read-out: Plasma level of Example 2. Format: in vivo. Here is the method:
(§1) Example prodrugs were dosed either intravenously or orally to fasted male Sprague Dawley rats. The rats underwent surgery for jugular vein cannulation 48 hrs prior to dosing. Following dosing, 0.25 mL blood samples were taken via the cannulae at 0, 5, 10, 20, 30, 45, 60, 120, 240 & 360 minutes in EDTA coated tubes. Tubes were spun at 13,000 rpm for 4 minutes and 100 ul of supernatant taken immediately and stored at −80° C. prior to analysis. Plasma samples were analysed by LC-MS/MS following extraction by protein precipitation, and levels of parent prodrug and tonabersat were measured by MRM (Multiple Reaction Monitoring) analysis against an extracted calibration curve of plasma samples spiked with the Example prodrug and tonabersat.
Example 2 was dosed according to this protocol at 0.95 mg/kg IV. […] Plasma levels of tonabersat were determined to be 130 ng/mL at 5 min and 115 ng/mL at 6 hrs clearly showing conversion of the prodrug to tonabersat over this timecourse following intravenous dosing.

Series [2] can be described thus: Pharmacokinetics: plasma levels after oral dosing to rats. The class given is in vivo. As to conditions: male, Sprague Dawley, 6.1 mg/kg, rat, 6.10 mg/kg PO, read-out: Plasma level of Example 2. Here is the method: as §1
Example 2 was dosed according to this protocol at 6.10 mg/kg PO. […] Plasma levels of tonabersat were determined to be 63 ng/mL at 5 min and 900 ng/mL at 6 hrs clearly showing conversion of the prodrug to tonabersat over this timecourse following oral dosing.

Series [3] has as its system unique stereo-selective site in human brains. As to conditions: human brain; cited from earlier work.
The subject of series [4] is high K+ evoked CSD. The note with it: rats; cited from earlier work.
The test system of series [5] is high K+ evoked CSD. As to conditions: cats; cited from earlier work.
Series [6] concerns unique stereo-selective site in rat brains. As to conditions: rat brain; cited from earlier work.

For `CC(=O)c1ccc2c(c1)[C@H](NC(=O)c1ccc(F)c(Cl)c1)[C@H](OC(=O)CN(C)C)C(C)(C)O2` [Example 2, (3S,4S)-6-Acetyl-4-[(3-chloro-4-fluorobenzene)amido]-2,2-dimethyl-3,4-dihydro-2H-1-benzopyran-3-yl 2-(dimethylamino)acetate hydrochloride], the figures for the concentration at 5 min in series [1] (at 5 min) and in series [2] (at 5 min) were 730 ng/mL and 38 ng/mL, respectively. Also, the concentration at 6 h in series [1] (at 6 hrs) and in series [2] (at 6 hrs) was below 5 ng/mL throughout.
Turning to `CC(=O)c1ccc2c(c1)[C@H](NC(=O)c1ccc(F)c(Cl)c1)[C@H](O)C(C)(C)O2` [Tonabersat], the binding affinity entry is “binds selectively and with high affinity” in series [3]; “binds selectively and with high affinity” in series [6]. Also, the “inhibition of high K+ evoked CSD” value in the series with high K+ evoked CSD [4] and in the series with high K+ evoked CSD [5] was “inhibits high K+ evoked CSD” in each case.
